# According to patent publication US20240408180A1, “IONIC LIQUIDS FOR DRUG DELIVERY” (PRESIDENT AND FELLOWS OF HARVARD COLLEGE, priority 2021, published 2024):
# What was measured:
# [1] = biological target: Type I Human Collagen (human) (UniProt P02452); assay: fluorescence polarization of Cy5.5-insulin mixed with Type I human collagen
# [2] = biological target: Type I Human Collagen (human) (UniProt P02452); assay: dynamic light scattering time course after mixing with collagen
# [3] = biological target: Type I Human Collagen (human) (UniProt P02452); assay: dynamic light scattering after mixing the insulin formulation with collagen
# insulin [4] = biological target: T1, insulin (Homo sapiens, UniProt P01308); assay: Circular dichroism of insulin secondary structure in ILs; assay type: physicochemical; details: one hour at room temperature and at 37 C; insulin ~6 U/mL (0.2 mg/mL); versus saline negative control
# T1 construct: in this case insulin around 5.8 kDa; purchased Sigma Aldrich (St. Louis, MO)
# T1 sequence (P01308 25-54 limits assumed, species assumed): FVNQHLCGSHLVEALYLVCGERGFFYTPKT
# T1 sequence (P01308 90-110 limits assumed, species assumed): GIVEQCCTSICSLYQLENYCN
# Experimental: Circular dichroism was used to assess insulin secondary structure (FIG. 2). The experiment was performed after incubation at room temperature and at 37° C. (physiological temperature) for one hour. This was done to assess whether the heat change associated with subcutaneous injection may affect the insulin structure. […] “aCG” refers to acetylcholine glycolic acid and “aCH” refers to acetylcholine hexenoic acid. Insulin concentration was ˜6 U/mL (0.2 mg/mL).
# [5] = In vivo PK of insulin in ILs after subcutaneous injection; details: rats, insulin 1 U/kg, non-fasted
# antibody [6] = assay: Antibody stability by circular dichroism; assay type: physicochemical; details: one hour at room temperature; versus fresh antibody control
# Experimental: (§1) Antibody stability was next tested. Circular dichroism and SDS-PAGE were used to assess antibody stability (FIG. 5). […] Additionally, SDS-PAGE was used to assess whether acetylcholine caused aggregation (of particular importance for large beta-sheet biologics like antibodies). […] Both CD and SDS-PAGE were performed after incubation at room temperature for one hour.
# antibody [7] = assay: Antibody aggregation by SDS-PAGE; assay type: physicochemical; details: one hour at room temperature; versus control
# Experimental: as §1
# dendritic cell line = assay: In vitro transfection with mRNA nanoparticles coated with DES; assay type: cell-based; details: 4 hours incubation, flow cytometry
# Experimental: IL delivery of mRNA in vitro was assessed. The in vitro transfection experiments were performed in a dendritic cell line with mRNA nanoparticles and indicate that acetylcholine hexenoic acid DES can enhance mRNA treatments. The particles were incubated with acetylcholine DES solutions to “coat” the particles. The cells were incubated with the particles for the 4 hours before analyzing with flow cytometry.
# insulin [8] = biological target: T1, insulin; assay: Stressed aging test of insulin-DES formulations (transmittance); assay type: physicochemical; details: 50 hours at 37 C with constant shaking
# Experimental: Successful dissolution of insulin was determined by the turbidity of the formulation, assessed by converting absorbance at 540 nm to transmittance.^16 The percent transmittance threshold for the successful formulation was set at 80% as this was the mean transmittance for the clinical comparator (Humalog). Low transmittance values are indicative of insoluble insulin aggregates. All but two formulations met this criterion (FIG. 13). To further screen the remaining DES formulations, a stressed aging test was performed to determine their stability for 50 hours at 37° C. with constant shaking.
# (§2) The insulin-DES formations were first analyzed for initial transmittance to confirm that there was no insulin aggregation immediately after formulation preparation. Subsequently, formulations that passed initial screening were plated in a black-walled 96 well plate (replicates of three) and subjected to a stressed aging assay in which the plate was incubated at 37° C. with constant shaking. Absorbance readings were taken every 15 minutes for 50 hours to assess the change in transmittance over time. For cold chain stability, formulations were tested in a similar manner, without constant shaking, at 4° C. for 28 days.
# insulin [9] = biological target: T1, insulin; assay: Cold-chain stability of insulin-DES formulations (transmittance); assay type: physicochemical; details: 4 C over 28 days
# Experimental: (§3) The final screening was performed to assess cold-chain stability and confirm monomer conformational stability. […] The stability of hexenoate-based formulations was further confirmed by assessing the protein's secondary structure through circular dichroism (CD). […] CD spectra integrity was also confirmed by measuring the high-tension voltage, which was maintained below 500 V for the relevant insulin CD wavelengths (FIG. 14).
# as §2
# insulin [10] = biological target: T1, insulin; assay: Circular dichroism of insulin-DES formulations; assay type: physicochemical; details: 37 C for two hours
# Experimental: as §3
# Protein Stability Assessment Using Circular Dichroism and SDS-PAGE. […] In preparation for circular dichroism (CD) and SDS-PAGE, the post-dialysis concentration was measured with UV Spectrophotometry (Thermo Scientific NanoDrop One) and adjusted to 200 μg/mL. CD was performed by loading quartz cuvettes (Starna Cells Spectrosil Quartz 1-Q-1), with 200 μL of the sample, into a CD spectrophotometer (Jasco J-815). Mean ellipticity was measured from 190 to 250 nm.
# Type I human collagen = biological target: T2, Type I human collagen (Homo sapiens, UniProt P02452+P08123); assay: Fluorescence polarization of Cy5.5-labeled insulin mixed with collagen; assay type: binding; details: Cy5.5-labeled insulin in aCH versus saline control
# T2 construct: purchased Advanced BioMatrix (Carlsbad, CA)
# T2 sequence (P02452 162-1218 limits assumed): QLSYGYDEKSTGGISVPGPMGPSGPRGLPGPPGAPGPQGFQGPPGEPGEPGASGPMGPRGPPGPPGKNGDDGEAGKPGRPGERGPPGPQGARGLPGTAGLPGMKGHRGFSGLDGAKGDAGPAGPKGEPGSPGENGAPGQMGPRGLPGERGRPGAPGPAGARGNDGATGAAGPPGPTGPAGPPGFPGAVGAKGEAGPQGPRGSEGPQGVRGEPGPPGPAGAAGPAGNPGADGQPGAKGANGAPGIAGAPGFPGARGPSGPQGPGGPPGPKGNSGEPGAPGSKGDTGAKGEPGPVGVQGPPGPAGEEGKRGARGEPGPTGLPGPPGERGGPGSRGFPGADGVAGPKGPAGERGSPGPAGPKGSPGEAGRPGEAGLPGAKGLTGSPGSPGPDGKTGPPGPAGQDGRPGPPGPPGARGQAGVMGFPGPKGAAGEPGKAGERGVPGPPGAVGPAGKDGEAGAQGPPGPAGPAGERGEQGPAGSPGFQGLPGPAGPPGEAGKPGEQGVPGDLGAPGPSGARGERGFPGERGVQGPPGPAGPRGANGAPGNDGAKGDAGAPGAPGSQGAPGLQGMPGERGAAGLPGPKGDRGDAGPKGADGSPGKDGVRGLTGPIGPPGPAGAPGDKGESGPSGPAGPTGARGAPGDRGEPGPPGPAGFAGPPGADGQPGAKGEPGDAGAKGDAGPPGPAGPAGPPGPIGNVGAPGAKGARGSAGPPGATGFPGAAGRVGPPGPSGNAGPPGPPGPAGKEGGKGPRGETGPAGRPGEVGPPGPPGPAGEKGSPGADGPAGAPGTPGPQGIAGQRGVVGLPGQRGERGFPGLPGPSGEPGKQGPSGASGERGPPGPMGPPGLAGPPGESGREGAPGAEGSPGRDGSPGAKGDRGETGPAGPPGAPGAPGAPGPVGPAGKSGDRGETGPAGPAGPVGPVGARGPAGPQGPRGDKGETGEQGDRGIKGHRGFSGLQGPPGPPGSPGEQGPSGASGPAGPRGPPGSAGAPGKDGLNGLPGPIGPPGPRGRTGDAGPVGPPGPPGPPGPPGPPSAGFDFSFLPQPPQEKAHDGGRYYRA
# T2 sequence (P08123 80-1119 limits assumed): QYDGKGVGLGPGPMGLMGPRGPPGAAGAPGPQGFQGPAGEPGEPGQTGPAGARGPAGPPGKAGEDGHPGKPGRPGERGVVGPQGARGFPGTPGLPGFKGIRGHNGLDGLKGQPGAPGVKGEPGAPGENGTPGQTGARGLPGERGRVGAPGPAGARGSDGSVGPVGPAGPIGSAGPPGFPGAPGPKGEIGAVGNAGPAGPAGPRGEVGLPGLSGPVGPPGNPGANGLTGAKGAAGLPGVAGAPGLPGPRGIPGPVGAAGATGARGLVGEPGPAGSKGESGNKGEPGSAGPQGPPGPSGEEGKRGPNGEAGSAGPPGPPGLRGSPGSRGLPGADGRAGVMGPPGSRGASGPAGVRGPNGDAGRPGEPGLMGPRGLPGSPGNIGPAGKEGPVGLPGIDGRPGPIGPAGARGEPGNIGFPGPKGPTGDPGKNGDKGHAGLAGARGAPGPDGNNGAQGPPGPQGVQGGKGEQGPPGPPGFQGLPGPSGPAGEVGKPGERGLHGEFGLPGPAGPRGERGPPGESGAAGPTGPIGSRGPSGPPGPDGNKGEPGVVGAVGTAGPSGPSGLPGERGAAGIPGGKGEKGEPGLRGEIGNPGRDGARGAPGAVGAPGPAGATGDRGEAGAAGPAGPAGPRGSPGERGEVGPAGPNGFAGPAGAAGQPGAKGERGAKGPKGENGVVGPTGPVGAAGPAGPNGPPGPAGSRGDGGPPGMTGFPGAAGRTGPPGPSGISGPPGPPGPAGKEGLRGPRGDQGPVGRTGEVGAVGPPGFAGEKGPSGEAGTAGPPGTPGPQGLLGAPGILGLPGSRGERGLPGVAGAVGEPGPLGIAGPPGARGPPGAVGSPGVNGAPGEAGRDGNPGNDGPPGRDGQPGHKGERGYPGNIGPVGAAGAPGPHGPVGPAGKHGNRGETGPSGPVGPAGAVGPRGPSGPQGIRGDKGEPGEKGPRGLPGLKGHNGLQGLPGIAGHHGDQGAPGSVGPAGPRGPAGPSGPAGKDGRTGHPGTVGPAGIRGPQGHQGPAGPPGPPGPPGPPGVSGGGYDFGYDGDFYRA
# Experimental: The ability of SPADE to mitigate the interactions of proteins with ECM was assessed using the lead DES, aCH. A schematic representation of the hypothesized mechanism is depicted in FIG. 8A. SPADE (right) is hypothesized to decrease non-specific binding between administered therapeutic proteins and subcutaneous extracellular proteins such as collagen to allow for faster and greater absorption of protein biologics. To test this hypothesis, fluorescence polarization (FP) was performed and dynamic light scattering (DLS) utilized to determine the degree of collagen-insulin association. […] The average polarization was 1.5 times higher for the control group than the SPADE group. To further confirm the FP results and compare against Humalog, DLS was used to measure the average particle diameter (z-avg) after mixing insulin formulations with collagen, as the z-avg for insulin-bound collagen would increase with fewer unbound insulin molecules remaining and only the collagen or collagen-insulin complex being detected. The initial average z-avg for both the Humalog- and SPADE-insulin-collagen mixtures were approximately 100 nm. […]
# Physical stability of the formulations in the presence of collagen was further assessed using fluorescence polarization (FP). […] When insulin is fluorescently labeled and excited with polarized light the perpendicular and parallel polarized light emission can be measured. […]
# rituximab [11] = assay: SPADE-mAb stability by SDS-PAGE; assay type: physicochemical; details: for rituximab stability by SDS-PAGE: 37 C for 2 and 24 hours
# Experimental: (§4) Described herein the exploration of whether SPADE can also enhance the absorption of a large protein biologic, namely monoclonal antibody rituximab (SPADE-mAb), that would benefit from greater absorption from subcutaneous administration. Due to the clinical requirement of higher dosing for subcutaneous antibody formulation compared to insulin, we first assessed DES concentration for stable SPADE formulation with rituximab using SDS-PAGE and CD. Formulations were prepared with various DES concentrations and consistent rituximab concentrations and incubated at 37° C. for 2 and 24 hours. After incubation, the samples were dialyzed against sodium phosphate to remove DES, and the resulting samples were diluted to the same concentration via UV-Vis spectrophotometry before SDS-PAGE and CD analyses. […] To further confirm this CD was used to assess the secondary structure of the samples that were incubated for 24 hours.
# (§5) Protein Stability Assessment Using Circular Dichroism and SDS-PAGE. Insulin and antibody formulations were incubated at 37° C. for one hour and subsequently dialyzed against 10 mM Sodium Phosphate pH 7.4. In preparation for circular dichroism (CD) and SDS-PAGE, the post-dialysis concentration was measured with UV Spectrophotometry (Thermo Scientific NanoDrop One) and adjusted to 200 μg/mL. CD was performed by loading quartz cuvettes (Starna Cells Spectrosil Quartz 1-Q-1), with 200 μL of the sample, into a CD spectrophotometer (Jasco J-815). Mean ellipticity was measured from 190 to 250 nm.
# To assess antibody aggregation, SDS-PAGE was performed using vertical gel electrophoresis (BioRad Mini-PROTEAN Tetra Cell) loaded with precast polyacrylamide gels (BioRad TGX 4-15%) according to the manufacturer protocol. To form SDS complexes, samples were incubated in 1× Lammeli buffer for 10 minutes at 70° C. before loading in the gel. After 30 minutes of electrophoresis, the gel was removed and protein bands stained with Coumassie dye.
# rituximab [12] = assay: SPADE-mAb stability by circular dichroism; assay type: physicochemical; details: 37 C for 24 hours
# Experimental: as §4
# as §5, with “CD was performed by loading quartz cuvettes (Starna Cells Spectrosil Quartz 1-Q-1), with 200 μL of the sample, into a CD spectrophotometer (Jasco J-815).” left out
# [13] = rat, in vivo, 10 mg/kg; cited from earlier work
# Sequence of Type I Human Collagen (human) (P02452 179-1192 limits assumed, chain 1 of 2): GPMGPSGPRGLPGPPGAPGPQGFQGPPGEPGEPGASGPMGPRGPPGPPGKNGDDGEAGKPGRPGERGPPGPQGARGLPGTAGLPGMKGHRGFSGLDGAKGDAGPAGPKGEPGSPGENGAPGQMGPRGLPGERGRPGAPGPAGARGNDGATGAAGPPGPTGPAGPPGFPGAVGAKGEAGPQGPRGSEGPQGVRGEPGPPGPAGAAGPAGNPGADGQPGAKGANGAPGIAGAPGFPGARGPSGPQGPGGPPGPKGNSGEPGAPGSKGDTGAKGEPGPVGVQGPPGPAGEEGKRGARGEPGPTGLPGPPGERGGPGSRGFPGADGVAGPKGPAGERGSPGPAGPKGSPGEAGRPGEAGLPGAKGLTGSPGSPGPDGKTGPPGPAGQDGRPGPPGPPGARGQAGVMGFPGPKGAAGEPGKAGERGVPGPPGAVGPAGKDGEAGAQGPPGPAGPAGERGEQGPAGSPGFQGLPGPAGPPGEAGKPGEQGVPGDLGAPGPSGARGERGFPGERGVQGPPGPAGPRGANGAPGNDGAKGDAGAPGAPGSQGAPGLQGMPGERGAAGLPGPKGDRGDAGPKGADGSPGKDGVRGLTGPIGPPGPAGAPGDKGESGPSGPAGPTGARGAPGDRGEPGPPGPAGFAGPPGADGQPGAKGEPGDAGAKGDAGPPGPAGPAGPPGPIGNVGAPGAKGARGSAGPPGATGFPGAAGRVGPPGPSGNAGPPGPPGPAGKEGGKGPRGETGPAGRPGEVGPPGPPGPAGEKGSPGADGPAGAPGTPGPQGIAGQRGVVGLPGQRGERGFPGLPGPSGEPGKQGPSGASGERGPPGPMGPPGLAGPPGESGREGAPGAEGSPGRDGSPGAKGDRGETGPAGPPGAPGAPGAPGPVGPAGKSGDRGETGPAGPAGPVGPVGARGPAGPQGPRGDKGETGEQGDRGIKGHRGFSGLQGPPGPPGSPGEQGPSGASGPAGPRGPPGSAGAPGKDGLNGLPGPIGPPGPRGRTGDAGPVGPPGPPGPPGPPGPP
# Sequence of Type I Human Collagen (human) (P08123 91-1104 limits assumed, chain 2 of 2, further chain): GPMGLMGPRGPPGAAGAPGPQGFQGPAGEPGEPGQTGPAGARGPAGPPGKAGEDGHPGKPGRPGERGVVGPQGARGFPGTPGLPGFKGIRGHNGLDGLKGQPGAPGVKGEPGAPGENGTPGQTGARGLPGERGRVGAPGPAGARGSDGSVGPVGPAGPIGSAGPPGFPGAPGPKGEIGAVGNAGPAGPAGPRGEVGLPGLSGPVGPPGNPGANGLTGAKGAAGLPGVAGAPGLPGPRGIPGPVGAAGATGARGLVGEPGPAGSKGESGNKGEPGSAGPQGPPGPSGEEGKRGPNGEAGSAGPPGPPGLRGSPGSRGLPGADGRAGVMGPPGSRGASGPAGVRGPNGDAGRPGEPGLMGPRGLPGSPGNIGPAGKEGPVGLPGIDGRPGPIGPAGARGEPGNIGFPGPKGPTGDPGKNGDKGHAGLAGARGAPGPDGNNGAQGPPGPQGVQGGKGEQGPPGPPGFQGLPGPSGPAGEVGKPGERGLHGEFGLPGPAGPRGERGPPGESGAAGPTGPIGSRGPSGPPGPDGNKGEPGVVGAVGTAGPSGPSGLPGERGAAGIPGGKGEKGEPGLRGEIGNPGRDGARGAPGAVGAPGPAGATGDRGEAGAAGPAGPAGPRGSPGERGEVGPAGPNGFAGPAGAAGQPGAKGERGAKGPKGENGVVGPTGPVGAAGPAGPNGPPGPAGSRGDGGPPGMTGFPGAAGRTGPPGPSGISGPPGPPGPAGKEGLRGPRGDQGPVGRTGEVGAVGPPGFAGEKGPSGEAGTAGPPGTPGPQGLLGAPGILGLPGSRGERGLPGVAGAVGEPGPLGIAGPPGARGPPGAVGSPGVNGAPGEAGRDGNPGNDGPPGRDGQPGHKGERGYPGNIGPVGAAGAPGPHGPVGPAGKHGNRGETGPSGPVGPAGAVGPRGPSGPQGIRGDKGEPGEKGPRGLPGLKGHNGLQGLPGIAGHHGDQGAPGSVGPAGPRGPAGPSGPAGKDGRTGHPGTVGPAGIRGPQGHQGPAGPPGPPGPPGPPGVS
# Sequence of Cy 5.5 fluorescently-labeled insulin (ligand) (P01308 25-54): as the sequence (P01308 25-54 limits assumed, species assumed) above
substance,measurement,setting,value
Cy 5.5 fluorescently-labeled insulin (ligand),"fold average polarization, control (saline) over SPADE (aCH)",[1],1.5 fold
Humalog (insulin lispro) (ligand),average particle diameter (z-avg) of the mixture with collagen over 60 min,[2],> 5000 nm
same,initial average particle diameter (z-avg) of the mixture with collagen,[3],100 nm
acetylcholinium glycolate DES [aCG],insulin secondary structure (circular dichroism curves),insulin [4],match the saline negative control groups
same,"Cmax of serum insulin, greater than the choline variant",[5],50%
acetylcholinium hexenoate DES [aCH],insulin secondary structure (circular dichroism curves),insulin [4],match the saline negative control groups
same,secondary structure of the antibody (circular dichroism),antibody [6],not affected
same,antibody aggregation (SDS-PAGE),antibody [7],looked the same as the control
same,mean fluorescent intensity (GFP expression),dendritic cell line,higher
same,percent of cells expressing GFP,dendritic cell line,increased
same,outcome of stressed aging test,insulin [8],viable
same,cold-chain stability,insulin [9],stable through Day 28
same,CD spectra of insulin versus control insulin in sodium phosphate buffer,insulin [10],matched that of the control insulin
same,non-specific insulin-collagen binding (fluorescence polarization),Type I human collagen,inhibits non-specific insulin-collagen binding
same,rituximab stability by SDS-PAGE,rituximab [11]; 10% (v/v) DES,faint band further up the gel
same,appropriate DES concentration for the SPADE-mAb formulation (from stability studies),rituximab [11]; SDS-PAGE and CD stability studies,5 % (v/v)
same,rituximab stability by SDS-PAGE,rituximab [11]; all DES concentrations apart from 10% (v/v),stable
same,rituximab secondary structure by CD versus control,rituximab [12]; 10% (v/v) DES,shift in mean ellipticity
same,rituximab secondary structure by CD versus control,rituximab [12]; DES concentrations other than 10% (v/v),none of the other DES concentrations experienced this shift
acetylcholinium priopionate DES [aCP],outcome of stressed aging test,insulin [8],viable
cholinium hexenoate DES,outcome of stressed aging test,insulin [8],viable
same,cold-chain stability,insulin [9],stable through Day 28
same,CD spectra of insulin versus control insulin in sodium phosphate buffer,insulin [10],matched that of the control insulin
cholinium propionate DES [CP],outcome of stressed aging test,insulin [8],viable
hyaluronidase,increase of rituximab absorption,[13],91%
regular insulin formulated in aCH (SPADE-insulin) (from UniProt P01308 25-54; P01308 90-110) (ligand),average particle diameter (z-avg) of the mixture with collagen over 60 min,[2],100 nm
same,initial average particle diameter (z-avg) of the mixture with collagen,[3],100 nm
